Patent US20110245249A1, “Heterocyclically Substituted Anilinopyrimidines” (Bayer CropScience AG, priority 2008, published 2011)
Each block holds one compound with its values, some of them ahead of it.

Experiment: logP by HPLC on reversed-phase columns (EEC Directive 79/831 Annex V.A8)
Type: physicochemical
Settings: for log p [c]: pH 7.8; for log p [a]: pH 2.3
Experimental: The logP values were measured in accordance with EEC Directive 79/831 Annex V.A8 by HPLC (High Performance Liquid Chromatography) on reversed-phase columns (C 18) using the methods below:
[a] The determination was carried out in the acidic range at pH 2.3 using the mobile phases 0.1% aqueous phosphoric acid and acetronitrile linear gradient from 10% acetonitrile to 95% acetronitrile. [b] The LC-MS determination in the acid range was carried out at pH 2.7 using the mobile phases 0.1% aqueous formic acid and acetonitrile (contains 0.1% formic acid) linear gradient from 10% acetonitrile to 95% acetonitrile. [c] The LC-MS determination in the neutral range was carried out at pH 7.8 using the mobile phases 0.001 molar aqueous ammonium bicarbonate solution and acetonitrile linear gradient from 10% acetonitrile to 95% acetonitrile.

SMILES: Clc1cnc(Nc2cccc(C3OC4CCCCC4O3)c2)nc1NC1CC1 (stereo not drawn) [Example 44]
log p [b] (pH 2.7): 2.65
log p [c]: 3.99

SMILES: FC(F)(F)CNc1nc(Nc2cccc(C3OCCO3)c2)ncc1Cl [Example 45]
log p [b] (pH 2.7): 2.35
log p [c]: 2.73

chromatographic logP (pH 2.7, log p [b]): 2.05
chromatographic logP (pH 2.7, logP (pH 2.7)): 2.05
chromatographic logP (pH 7.8, log p [c]): 3.26
SMILES: Clc1cnc(Nc2cccc(C3OCCS3)c2)nc1NC1CC1 (stereo not drawn) [Example 46, 5-Chloro-N^4-cyclopropyl-N^2-[3-(1,3-oxathiolan-2-yl)phenyl]pyrimidine-2,4-diamine]

SMILES: Clc1cnc(Nc2cccc(C3SCCS3)c2)nc1NC1CC1 [Example 47]
log p [b] (pH 2.7): 2.42
log p [c]: 3.68

SMILES: CC1(c2cccc(Nc3ncc(C(F)(F)F)c(NC4CC4)n3)c2)OCCCO1 [Example 48]
log p [b] (pH 2.7): 3.29
log p [c]: 3.64

SMILES: Ic1cnc(Nc2cccc(C3OCCO3)c2)nc1NC1CC1 [Example 49]
log p [b] (pH 2.7): 1.75
log p [c]: 3.02

SMILES: Clc1ccc(Nc2ncc(Cl)c(NC3CC3)n2)cc1C1OCCO1 [Example 50]
log p [b] (pH 2.7): 2.31
log p [c]: 3.28

SMILES: Fc1cnc(Nc2cccc(C3OCCCO3)c2)nc1NC1CC1 [Example 51]
log p [a]: 1.23
log p [b] (pH 2.7): 1.28[b]
log p [c]: 2.4

SMILES: FC(F)CNc1nc(Nc2cccc(C3OCCCO3)c2)ncc1Cl [Example 52]
log p [a]: 1.6
log p [b] (pH 2.7): 1.97[b]
log p [c]: 2.68

SMILES: FC(F)(F)CNc1nc(Nc2cccc(C3OCCCO3)c2)ncc1Cl [Example 53]
log p [a]: 2.08
log p [b] (pH 2.7): 2.48[b]
log p [c]: 2.86

SMILES: C#CCNc1nc(Nc2cccc(C3OCCCO3)c2)ncc1Cl [Example 54]
log p [a]: 1.38
log p [b] (pH 2.7): 1.67[b]
log p [c]: 2.48

SMILES: Cc1cnc(Nc2cccc(C3OCCCO3)c2)nc1NC1CC1 [Example 55]
log p [a]: 1.32
log p [b] (pH 2.7): 1.28[b]
log p [c]: 2.37

SMILES: COCC(C)Nc1nc(Nc2cccc(C3OCCCO3)c2)ncc1Cl (stereo not drawn) [Example 56]
log p [a]: 1.46
log p [b] (pH 2.7): 1.69[b]
log p [c]: 2.92

SMILES: Ic1cnc(Nc2cccc(C3OCCCO3)c2)nc1NC1CC1 [Example 57]
log p [a]: 1.6
log p [b] (pH 2.7): 2.23[b]
log p [c]: 3.18

SMILES: Cc1cnc(Nc2cccc(C3OCCO3)c2)nc1NC1CC1 [Example 58]
log p [a]: 1.21
log p [b] (pH 2.7): 1.21[b]
log p [c]: 2.25

SMILES: Fc1cnc(Nc2cccc(C3OCCO3)c2)nc1NC1CC1 [Example 59]
log p [a]: 1.14
log p [b] (pH 2.7): 1.60[b]
log p [c]: 2.28

SMILES: FC(F)CNc1nc(Nc2cccc(C3OCCO3)c2)ncc1Cl [Example 60]
log p [a]: 1.49
log p [b] (pH 2.7): 1.88[b]
log p [c]: 2.55

SMILES: COCC(C)Nc1nc(Nc2cccc(C3OCCO3)c2)ncc1Cl (stereo not drawn) [Example 61]
log p [b] (pH 2.7): 1.62[b]

SMILES: Clc1ccc(Nc2ncc(Cl)c(NC3CC3)n2)cc1C1OCCCO1 [Example 62]
log p [b] (pH 2.7): 2.44
log p [c]: 3.47

SMILES: COC(OC)c1cccc(Nc2ncc(Cl)c(NC3CC3)n2)c1 [Example 63]
log p [b] (pH 2.7): 1.87
log p [c]: 3.07

SMILES: CCOC(OCC)c1cccc(Nc2ncc(Cl)c(NC3CC3)n2)c1 [Example 64]
log p [b] (pH 2.7): 2.58
log p [c]: 3.86

SMILES: CC(C)OC(OC(C)C)c1cccc(Nc2ncc(Cl)c(NC3CC3)n2)c1 [Example 65]
log p [c]: 4.44[c];

SMILES: CCCCOC(OCCCC)c1cccc(Nc2ncc(Cl)c(NC3CC3)n2)c1 [Example 66]
log p [b] (pH 2.7): 4.64
logP (pH 2.7) (pH 2.7): 4.64
log p [c]: 5.83

SMILES: CC1(c2cccc(Nc3ncc(C(F)(F)F)c(NCC4CC4)n3)c2)OCCCO1 [Example 68]
log p [b] (pH 2.7): 3.42[b]

SMILES: CC1(c2cccc(Nc3ncc(C(F)(F)F)c(NC4CCC4)n3)c2)OCCCO1 [Example 69]
log p [b] (pH 2.7): 3.81
log p [c]: 4.24

SMILES: CC1(C)COC(C)(c2cccc(Nc3ncc(Cl)c(NC4CC4)n3)c2)OC1 [Example 71]
log p [b] (pH 2.7): 2.99
log p [c]: 4.35

SMILES: CC1COC(C)(c2cccc(Nc3ncc(C(F)(F)F)c(NC4CC4)n3)c2)O1 (stereo not drawn) [Example 72]
log p [b] (pH 2.7): 3.52
log p [c]: 3.94

SMILES: CC1(C)COC(C)(c2cccc(Nc3ncc(C(F)(F)F)c(NC4CC4)n3)c2)OC1 [Example 73]
log p [b] (pH 2.7): 4.32
log p [c]: 4.7

SMILES: CCC1(c2cccc(Nc3ncc(Cl)c(NC4CC4)n3)c2)OCC(C)O1 (stereo not drawn) [Example 74]
log p [b] (pH 2.7): 2.67
log p [c]: 4.1

SMILES: CC1CC1Nc1nc(Nc2cccc(C3OCCO3)c2)ncc1Cl (stereo not drawn) [Example 75]
log p [c]: 3.21[c]

SMILES: CC1CC1Nc1nc(Nc2cccc(C3(C)OCCO3)c2)ncc1Cl (stereo not drawn) [Example 76]
log p [b] (pH 2.7): 2.32
log p [c]: 3.67

SMILES: Brc1cnc(Nc2ccc(C3OCCCO3)cc2)nc1NC1CCC1 [Example 77]
log p [b] (pH 2.7): 2.2
log p [c]: 3.61

SMILES: FC(F)(F)c1cnc(Nc2ccc(C3OCCCO3)cc2)nc1NC1CC1 [Example 78]
log p [b] (pH 2.7): 2.72
log p [c]: 3.21

SMILES: Brc1cnc(Nc2cccc(C3OCC(C4CC4)CO3)c2)nc1NC1CC1 (stereo not drawn) [Example 79]
log p [b] (pH 2.7): 2.77
log p [c]: 4.03

SMILES: Clc1cnc(Nc2cccc(C3OCC(C4CC4)CO3)c2)nc1NC1CCC1 (stereo not drawn) [Example 80]
log p [b] (pH 2.7): 2.93
log p [c]: 4.43

SMILES: C=C1COC(c2cccc(Nc3ncc(Br)c(NC4CC4)n3)c2)OC1 [Example 81]
log p [b] (pH 2.7): 2.1
log p [c]: 3.27

SMILES: C=C1COC(c2cccc(Nc3ncc(Br)c(NC4CCC4)n3)c2)OC1 [Example 82]
log p [b] (pH 2.7): 2.43
log p [c]: 3.85

SMILES: CC1COC(c2cccc(Nc3ncc(C(F)(F)F)c(NC4CC4)n3)c2)O1 (stereo not drawn) [Example 83]
log p [a]: 2.44
log p [b] (pH 2.7): 2.94[b]
log p [c]: 3.45

SMILES: CC1COC(c2cccc(Nc3ncc(Br)c(NC4CC4)n3)c2)O1 (stereo not drawn) [Example 84]
log p [b] (pH 2.7): 2.03
log p [c]: 3.25

SMILES: CC1COC(c2cccc(Nc3ncc(Br)c(NC4CCC4)n3)c2)O1 (stereo not drawn) [Example 85]
log p [b] (pH 2.7): 2.39
log p [c]: 3.84

SMILES: CC1COC(c2cccc(Nc3ncc(Cl)c(NC4CCC4)n3)c2)O1 (stereo not drawn) [Example 86]
log p [b] (pH 2.7): 2.2
log p [c]: 3.68

SMILES: CC1COC(c2cccc(Nc3ncc(C(F)(F)F)c(NC4CCC4)n3)c2)O1 (stereo not drawn) [Example 87]
log p [b] (pH 2.7): 3.51
log p [c]: 4.04

SMILES: CCC1COC(c2cccc(Nc3ncc(C(F)(F)F)c(NC4CC4)n3)c2)O1 (stereo not drawn) [Example 88]
log p [b] (pH 2.7): 3.48
log p [c]: 3.9

SMILES: CCC1COC(c2cccc(Nc3ncc(Br)c(NC4CCC4)n3)c2)O1 (stereo not drawn) [Example 89]
log p [b] (pH 2.7): 2.88
log p [c]: 4.35

SMILES: CCC1COC(c2cccc(Nc3ncc(Cl)c(NC4CCC4)n3)c2)O1 (stereo not drawn) [Example 90]
log p [b] (pH 2.7): 2.65
log p [c]: 4.18

SMILES: C=C1COC(c2cccc(Nc3ncc(Cl)c(NC4CCC4)n3)c2)OC1 [Example 91]
log p [c]: 3.73[c]

SMILES: C=C1COC(c2cccc(Nc3ncc(Cl)c(NC4CC4)n3)c2)OC1 [Example 92]
log p [b] (pH 2.7): 2.01
log p [c]: 3.18

SMILES: Clc1cnc(Nc2cccc(C3OCC(C4CC4)CO3)c2)nc1NC1CC1 (stereo not drawn) [Example 93]
log p [b] (pH 2.7): 2.6
log p [c]: 3.91

SMILES: Clc1cnc(Nc2cccc(C3OCCC(c4ccccc4)O3)c2)nc1NC1CC1 (stereo not drawn) [Example 94]
log p [b] (pH 2.7): 2.83
log p [c]: 4.11

SMILES: CC(C)(C)OCC1COC(c2cccc(Nc3ncc(Cl)c(NC4CC4)n3)c2)O1 (stereo not drawn) [Example 95]
log p [b] (pH 2.7): 2.76
log p [c]: 4.08

SMILES: CCCOCC1COC(c2cccc(Nc3ncc(Cl)c(NC4CC4)n3)c2)O1 (stereo not drawn) [Example 96]
log p [b] (pH 2.7): 2.51
log p [c]: 3.79

SMILES: CC1CCOC(c2cccc(Nc3ncc(Cl)c(NC4CC4)n3)c2)O1 (stereo not drawn) [Example 97]
log p [b] (pH 2.7): 2
log p [c]: 3.25

SMILES: CC1OC(c2cccc(Nc3ncc(Cl)c(NC4CC4)n3)c2)OC(C)C1C (stereo not drawn) [Example 98]
log p [b] (pH 2.7): 2.77
log p [c]: 4.21

SMILES: Clc1cnc(Nc2cccc(C3OCC(Cl)CO3)c2)nc1NC1CC1 (stereo not drawn) [Example 99]
log p [b] (pH 2.7): 2.15
log p [c]: 3.33

SMILES: CC1(C)CCOC(c2cccc(Nc3ncc(Cl)c(NC4CC4)n3)c2)O1 (stereo not drawn) [Example 100]
log p [b] (pH 2.7): 2.22
log p [c]: 3.57

SMILES: CC1COC(c2cccc(Nc3ncc(Cl)c(NC4CC4)n3)c2)OC1 (stereo not drawn) [Example 101]
log p [b] (pH 2.7): 2.1
log p [c]: 3.35

SMILES: CC1(C)CC(C)(C)OC(c2cccc(Nc3ncc(Cl)c(NC4CC4)n3)c2)O1 [Example 102]
log p [b] (pH 2.7): 2.86
log p [c]: 4.32

SMILES: Clc1cnc(Nc2cccc(C3OCC4(CCC4)CO3)c2)nc1NC1CC1 [Example 103]
log p [b] (pH 2.7): 2.6
log p [c]: 3.62

SMILES: COCC1COC(c2cccc(Nc3ncc(Br)c(NC4CC4)n3)c2)O1 (stereo not drawn) [Example 104]
log p [b] (pH 2.7): 1.9
log p [c]: 3.02

SMILES: COCC1COC(c2cccc(Nc3ncc(C(F)(F)F)c(NC4CCC4)n3)c2)O1 (stereo not drawn) [Example 106]
log p [b] (pH 2.7): 3.22
log p [c]: 3.77

SMILES: C=CCOCC1COC(c2cccc(Nc3ncc(Br)c(NC4CC4)n3)c2)O1 (stereo not drawn) [Example 107]
log p [a]: 2.01
log p [b] (pH 2.7): 2.43

SMILES: C=CCOCC1COC(c2cccc(Nc3ncc(C(F)(F)F)c(NC4CC4)n3)c2)O1 (stereo not drawn) [Example 108]
log p [b] (pH 2.7): 3.35
log p [c]: 3.79

SMILES: C=CCOCC1COC(c2cccc(Nc3ncc(C(F)(F)F)c(NC4CCC4)n3)c2)O1 (stereo not drawn) [Example 109]
log p [b] (pH 2.7): 3.84
log p [c]: 4.35

SMILES: Brc1cnc(Nc2cccc(C3OC4COCC4O3)c2)nc1NC1CC1 (stereo not drawn) [Example 110]
log p [c]: 2.66[c]
